For eleven molecules, survival, Latency and Improvement results are on record in ChEMBL document CHEMBL1125854, “Synthesis of substituted 5-amino-8-phenyl-3H,6H-1,4,5a,8a-tetraazaacenaphthalen-3-ones, a new class of agents for the improvement of cognition” (1991).

Assay type in all cases: functional
For assay [1], the system named is Mus musculus. Description: Survival of mice after intraperitoneal administration of 100 mg/kg compound by using hypoxic survival test was determined. The note with it: ip.
Assay [2] concerns Mus musculus. Description: Attenuation of anoxic-induced amnesia in mice treated with 10 mg/kg compound administered intraperitoneally was determined. Particulars: route intraperitoneal.
Assay [3] deals with Mus musculus. As to the kind of experiment: Tested for hypoxic survival test by 100 mg/kg intraperitoneal administration and percent survival of mice was reported. Particulars: ip.
Assay [4] deals with Mus musculus. Description: (§1) Attenuation of anoxic-induced amnesia in mice treated with 100 mg/kg compound administered intraperitoneally was determined. Particulars: route intraperitoneal.
Assay [5] concerns Mus musculus. As to the kind of experiment: Attenuation of anoxic-induced amnesia in mice treated with 25 mg/kg compound administered intraperitoneally was determined. Particulars: route intraperitoneal.
Assay [6] relates to Mus musculus. Description: Survival of mice after intraperitoneal administration of 50 mg/kg compound by using hypoxic survival test was determined. The note with it: ip.
The test system of assay [7] is Mus musculus. As to the kind of experiment: Attenuation of anoxic-induced amnesia in mice treated with 100 mg/kg compound administered intraperitoneally was determined; 153-209. The note with it: route intraperitoneal.
The test system of assay [8] is Mus musculus. The description is as §1. The note with it: route intraperitoneal. This is another data set of the same source.
Assay [9] concerns Mus musculus. As to the kind of experiment: Tested for hypoxic survival test by 0.125 mg/kg intraperitoneal administration and percent survival of mice was reported; Value ranges from 60-80. The note with it: ip.
Assay [10] deals with Mus musculus. Description: Attenuation of anoxic-induced amnesia in mice treated with 0.1 mg/kg compound administered intraperitoneally was determined. The note with it: route intraperitoneal.

Several values for one entry are separate records, joined by “and”; a condition that tells them apart may be missing. Identical values can stand only once.

In turn, `CC(C)Nc1nc(=O)c2cnn3c2n1CC=C3c1cccc(C(F)(F)F)c1` returned a survival at 100 mg/kg with Mus musculus [1] of 15%.

As to `CCNc1nc(=O)c2cnn3c2n1CC=C3c1cccc(C(F)(F)F)c1`, in the assay with Mus musculus [1], the survival at 100 mg/kg is 65%.

`Nc1nc(=O)c2cnn3c2n1CC=C3c1cccc(C(F)(F)F)c1` gave a Latency in the assay with Mus musculus [2] of 102 s. The survival at 100 mg/kg in the assay on Mus musculus [3] came to 68%. Moreover, in the assay on Mus musculus [4], the Improvement was found to be 20% and the Latency worked out at 180 s.

In turn, `CCCCNc1nc(=O)c2cnn3c2n1CC=C3c1ccccc1` displayed a survival at 100 mg/kg with Mus musculus [3] of 70%. Further, in the assay with Mus musculus [5], the Improvement came to 67%; the Latency was 127 s and 132 s.

In turn, `CC(C)CNc1nc(=O)c2cnn3c2n1CC=C3c1cccc(C(F)(F)F)c1` showed a survival at 50 mg/kg with Mus musculus [6] of 50%. Besides, in the assay with Mus musculus [7], the Improvement is recorded as 209%. For the same molecule, the Latency in the assay with Mus musculus [4] is 51 s; in the assay with Mus musculus [8], 218 s.

Molecule `CCNc1nc(=O)c2cnn3c2n1CC=C3c1ccccc1` yielded a survival at 100 mg/kg in the assay on Mus musculus [3] of 73%.

In the assay on Mus musculus [3], `CNc1nc(=O)c2cnn3c2n1CC=C3c1ccccc1` yielded a survival at 100 mg/kg of 95%.

With `CC(C)Nc1nc(=O)c2cnn3c2n1CC=C3c1ccccc1`, the survival at 100 mg/kg in the assay on Mus musculus [3] was found to be 20%.

`CCCCNc1nc(=O)c2cnn3c2n1CC=C3c1cccc(C(F)(F)F)c1`: the survival at 100 mg/kg with Mus musculus [1] was found to be 58%.

As to `CNC(=O)Oc1ccc2c(c1)[C@]1(C)CCN(C)[C@@H]1N2C` [PHYSOSTIGMINE], the survival at 0.125 mg/kg in the assay on Mus musculus [9] is 60%. Besides, the Improvement with Mus musculus [10] is recorded as 36%.

Regarding `CC(C)CNc1nc(=O)c2cnn3c2n1CC=C3c1ccccc1`, the survival at 100 mg/kg with Mus musculus [3] is 30%.
